How the values were obtained:
Assay in all cases: relative viability (nuclei count vs DMSO), 5 days (fraction); higher = more cells survive
BX 795 + Crizotinib = compound: O=C(NCCCNc1nc(Nc2cccc(NC(=O)N3CCCC3)c2)ncc1I)c1cccs1 [BX 795] + C[C@@H](Oc1cc(-c2cnn(C3CCNCC3)c2)cnc1N)c1c(Cl)ccc(F)c1Cl [Crizotinib] (partner 1 µM)
How it was run: (§1)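 Lung cancer cell lines were seeded in 1536-well plates and dosed by pin tool the next day, with either a single drug or a fixed anchor-drug dose combined with five library-drug doses (not always all listed) spaced in √10 steps. Five days later, one step fixed the cells and stained their nuclei (final 0.05% Triton X-100, 1% formaldehyde, 1 ug/ml Hoechst), and nuclei were counted on 4× images. Relative viability is the nuclei count in treated wells divided by the count in vehicle wells, and each value is the median of duplicate plates.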

BX 795 + Foretinib = compound: O=C(NCCCNc1nc(Nc2cccc(NC(=O)N3CCCC3)c2)ncc1I)c1cccs1 [BX 795] + COc1cc2c(Oc3ccc(NC(=O)C4(C(=O)Nc5ccc(F)cc5)CC4)cc3F)ccnc2cc1OCCCN1CCOCC1 [Foretinib] (partner 0.25 µM)
How it was run: as §1

BX 795 + Lapatinib = compound: O=C(NCCCNc1nc(Nc2cccc(NC(=O)N3CCCC3)c2)ncc1I)c1cccs1 [BX 795] + CS(=O)(=O)CCNCc1ccc(-c2ccc3ncnc(Nc4ccc(OCc5cccc(F)c5)c(Cl)c4)c3c2)o1 [Lapatinib] (partner 2 µM)
How it was run: as §1

BX 795 + Pictilisib = compound: O=C(NCCCNc1nc(Nc2cccc(NC(=O)N3CCCC3)c2)ncc1I)c1cccs1 [BX 795] + CS(=O)(=O)N1CCN(Cc2cc3nc(-c4cccc5[nH]ncc45)nc(N4CCOCC4)c3s2)CC1 [Pictilisib] (partner 1 µM)
How it was run: as §1

BX 795 + Bortezomib = compound: O=C(NCCCNc1nc(Nc2cccc(NC(=O)N3CCCC3)c2)ncc1I)c1cccs1 [BX 795] + CC(C)C[C@H](NC(=O)[C@H](Cc1ccccc1)NC(=O)c1cnccn1)B(O)O [Bortezomib] (partner 0.002 µM)
How it was run: as §1

BX 795 + Linsitinib = compound: O=C(NCCCNc1nc(Nc2cccc(NC(=O)N3CCCC3)c2)ncc1I)c1cccs1 [BX 795] + C[C@]1(O)C[C@@H](c2nc(-c3ccc4ccc(-c5ccccc5)nc4c3)c3c(N)nccn32)C1 [Linsitinib] (partner 1 µM)
How it was run: as §1

BX 795 + Alpelisib = compound: O=C(NCCCNc1nc(Nc2cccc(NC(=O)N3CCCC3)c2)ncc1I)c1cccs1 [BX 795] + Cc1nc(NC(=O)N2CCC[C@H]2C(N)=O)sc1-c1ccnc(C(C)(C)C(F)(F)F)c1 [Alpelisib] (partner 2 µM)
How it was run: as §1

BX 795 + Olaparib = compound: O=C(NCCCNc1nc(Nc2cccc(NC(=O)N3CCCC3)c2)ncc1I)c1cccs1 [BX 795] + O=C(c1cc(Cc2n[nH]c(=O)c3ccccc23)ccc1F)N1CCN(C(=O)C2CC2)CC1 [Olaparib] (partner 8 µM)
How it was run: as §1

BX 795 + Navitoclax = compound: O=C(NCCCNc1nc(Nc2cccc(NC(=O)N3CCCC3)c2)ncc1I)c1cccs1 [BX 795] + CC1(C)CCC(c2ccc(Cl)cc2)=C(CN2CCN(c3ccc(C(=O)NS(=O)(=O)c4ccc(N[C@H](CCN5CCOCC5)CSc5ccccc5)c(S(=O)(=O)C(F)(F)F)c4)cc3)CC2)C1 [Navitoclax] (partner 0.5 µM)
How it was run: as §1

BX 795 = compound: O=C(NCCCNc1nc(Nc2cccc(NC(=O)N3CCCC3)c2)ncc1I)c1cccs1 [BX 795]
How it was run: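 Five library-drug doses spaced by √10 were pinned onto vehicle-anchored 1536-well plates of lung cancer cell lines that had been kept overnight at 37 °C. Cells went 5 days without medium change, then were fixed, permeabilised and Hoechst-stained together, imaged at 4× and counted by MetaXpress. Viability is the ratio of treated-well to vehicle-well nuclei, taken as a median over plates. Plates required control CV below 25% and at least one doubling.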

Cell Line	relative viability (BX 795 + Crizotinib; first compound 0.04 µM)	relative viability (BX 795 + Crizotinib; first compound 0.1265 µM)	relative viability (BX 795 + Crizotinib; first compound 0.4 µM)	relative viability (BX 795 + Crizotinib; first compound 1.265 µM)	relative viability (BX 795 + Foretinib; first compound 0.04 µM)	relative viability (BX 795 + Foretinib; first compound 0.1265 µM)	relative viability (BX 795 + Foretinib; first compound 0.4 µM)	relative viability (BX 795 + Foretinib; first compound 1.265 µM)	relative viability (BX 795 + Lapatinib; first compound 0.04 µM)	relative viability (BX 795 + Lapatinib; first compound 0.1265 µM)	relative viability (BX 795 + Lapatinib; first compound 0.4 µM)	relative viability (BX 795 + Lapatinib; first compound 1.265 µM)	relative viability (BX 795 + Pictilisib; first compound 0.04 µM)	relative viability (BX 795 + Pictilisib; first compound 0.1265 µM)	relative viability (BX 795 + Pictilisib; first compound 0.4 µM)	relative viability (BX 795 + Pictilisib; first compound 1.265 µM)	relative viability (BX 795 + Bortezomib; first compound 0.04 µM)	relative viability (BX 795 + Bortezomib; first compound 0.1265 µM)	relative viability (BX 795 + Bortezomib; first compound 0.4 µM)	relative viability (BX 795 + Bortezomib; first compound 1.265 µM)	relative viability (BX 795 + Linsitinib; first compound 0.04 µM)	relative viability (BX 795 + Linsitinib; first compound 0.1265 µM)	relative viability (BX 795 + Linsitinib; first compound 0.4 µM)	relative viability (BX 795 + Linsitinib; first compound 1.265 µM)	relative viability (BX 795 + Alpelisib; first compound 0.04 µM)	relative viability (BX 795 + Alpelisib; first compound 0.1265 µM)	relative viability (BX 795 + Alpelisib; first compound 0.4 µM)	relative viability (BX 795 + Alpelisib; first compound 1.265 µM)	relative viability (BX 795 + Olaparib; first compound 0.04 µM)	relative viability (BX 795 + Olaparib; first compound 0.1265 µM)	relative viability (BX 795 + Olaparib; first compound 0.4 µM)	relative viability (BX 795 + Olaparib; first compound 1.265 µM)	relative viability (BX 795 + Navitoclax; first compound 0.04 µM)	relative viability (BX 795 + Navitoclax; first compound 0.1265 µM)	relative viability (BX 795 + Navitoclax; first compound 0.4 µM)	relative viability (BX 795 + Navitoclax; first compound 1.265 µM)	relative viability (BX 795; 0.04 µM)	relative viability (BX 795; 0.1265 µM)	relative viability (BX 795; 0.4 µM)	relative viability (BX 795; 1.265 µM)
Calu-6	0.728	0.777	0.556	0.249	0.91	0.84	0.557	0.555	1.02	1.1	0.843	0.552	0.896	0.966	0.518	0.505	1.04	1.02	0.831	0.525	0.883	1.06	0.533	0.726	1.1	0.919	0.585	0.509	0.559	0.591	0.283	0.336	0.825	0.874	0.727	0.389	0.98	1	0.716	0.665
EBC-1	0.199	0.186	0.184	0.172	0.104	0.0912	0.0982	0.0866	0.217	0.189	0.231	0.188	0.419	0.351	0.262	0.157	0.571	0.458	0.551	0.269	0.957	0.864	0.85	0.439	0.874	0.763	0.628	0.34	0.794	0.707	0.765	0.355	0.508	0.438	0.401	0.222	1.02	1.01	0.931	0.543
